Values of other authors in patent US11005050B2, “Metal complexes” (Merck Patent GmbH, priority 2014, dated 2021).

Conditions: prior-art statement; for example in aromatic hydrocarbons or chlorobenzene

In the case of c1cnc2c(c1)ccc1ccc[c]([Ir]([c]3cccc4ccc5cccnc5c34)[c]3cccc4ccc5cccnc5c34)c12 [tris(benzo[h]quinoline)iridium(III)], the “solubility in common organic solvents” value is listed as “virtually insoluble”.
